The source of these data is paper PMC11605156, “Triterpenoids from Ganoderma lucidum inhibit cytochrome P450 enzymes interfering with the metabolic process of specific clinical drugs” (Frontiers in Pharmacology, 2024).

The IC50 is the concentration that inhibits the measured activity by half. Higher therefore signals lower potency.

Molecules are shown by their SMILES.

One data set has as its target T1, CYP1A2 (Homo sapiens, UniProt P05177).
T1 sequence (P05177 1-516): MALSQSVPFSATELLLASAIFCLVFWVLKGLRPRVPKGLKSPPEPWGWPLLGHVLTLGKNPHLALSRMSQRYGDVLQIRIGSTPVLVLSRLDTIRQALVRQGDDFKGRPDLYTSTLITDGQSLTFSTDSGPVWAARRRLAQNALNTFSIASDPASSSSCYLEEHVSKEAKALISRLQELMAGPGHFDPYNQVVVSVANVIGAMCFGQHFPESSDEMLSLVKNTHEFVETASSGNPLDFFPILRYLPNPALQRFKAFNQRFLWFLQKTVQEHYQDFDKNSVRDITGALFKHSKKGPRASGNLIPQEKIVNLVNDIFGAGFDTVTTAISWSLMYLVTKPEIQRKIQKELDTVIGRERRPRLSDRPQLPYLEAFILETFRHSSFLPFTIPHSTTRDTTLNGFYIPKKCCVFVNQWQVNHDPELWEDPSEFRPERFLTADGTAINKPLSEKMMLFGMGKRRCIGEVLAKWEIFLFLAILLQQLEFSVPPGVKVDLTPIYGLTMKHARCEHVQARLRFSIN
Briefly: CYP1A2 inhibition, probe/drug metabolism in human liver microsomes (LC-MS/MS). The conditions noted are these: for IC50: IC50 against CYP 1A2, substrate phenacetin 40 μM, HLM; for activity at 30 min: human, human liver microsomes, pH 7.4, probe phenacetin 40 μM, Residual activity (%) CYP1A2, HLM 0.5 mg/mL. The method, then:
(§1) The total volume of the in vitro metabolic incubation system is 200 μL. The probe substrate concentration in the system is shown in Supplementary Table S1. […] The reaction sample was preheated in a constant temperature mixer at 37°C. Then NADP^+ was added to the system to initiate the reaction. The reaction time is 30 min, and 100 μL acetonitrile will be added on time to quickly terminate the reaction, followed by centrifugation at 4°C and 20,000 g for 20 min. The supernatant was analyzed using liquid chromatography tandem mass spectrometry (LC-MS/MS), and the activity of CYP enzymes was evaluated by the generation of probe metabolites. The mass spectrometry information of probe substrates is shown in Supplementary Table S3.
(§2) The isolated triterpenoids (1–66) were used to establish a compounds library. The inhibitory effects of 66 triterpenoids from G. lucidum on seven subtypes of CYP enzymes (CYP1A2, 2A6, 2D6, 2B6, 2C9, 2C19, 3A4) were evaluated followed the above-mentioned experimental procedures.
(§3) For 16 clinical drugs metabolized by CYP enzymes, potential DDI studies were conducted on triterpenoids (6, 25) of G. lucidum, and IC50 values were measured.
(§4) Clinical drugs: Phenacetin, melatonin, clozapine and riluzole are metabolized by CYP1A2. Bupropion, artemisinin, efavirenz and sertraline are metabolized by CYP2B6. Diclofenac, valsartan, glimepiride and glibenclamide are metabolized by CYP2C9. Midazolam, imatinib, simvastatin and diltiazem are metabolized by CYP3A4.
(§5) Table S1. The information of probes for CYPs activity assay
(§6) Table S2. Information of clinical drugs
In general terms: Liver microsomes are vesicles of endoplasmic reticulum, rich in cytochrome P450 enzymes.

In a further data set the target is CYP2D6 (Homo sapiens, UniProt P10635). Briefly: CYP2D6 inhibition, dextromethorphan probe in human liver microsomes. The conditions noted are these: for activity at 30 min: human, human liver microsomes, pH 7.4, probe dextromethorphan 5 μM, Residual activity (%) CYP2D6, HLM 0.5 mg/mL. The method, then: as §1, §2, §5
CYP2D6, sequence (P10635 whole entry): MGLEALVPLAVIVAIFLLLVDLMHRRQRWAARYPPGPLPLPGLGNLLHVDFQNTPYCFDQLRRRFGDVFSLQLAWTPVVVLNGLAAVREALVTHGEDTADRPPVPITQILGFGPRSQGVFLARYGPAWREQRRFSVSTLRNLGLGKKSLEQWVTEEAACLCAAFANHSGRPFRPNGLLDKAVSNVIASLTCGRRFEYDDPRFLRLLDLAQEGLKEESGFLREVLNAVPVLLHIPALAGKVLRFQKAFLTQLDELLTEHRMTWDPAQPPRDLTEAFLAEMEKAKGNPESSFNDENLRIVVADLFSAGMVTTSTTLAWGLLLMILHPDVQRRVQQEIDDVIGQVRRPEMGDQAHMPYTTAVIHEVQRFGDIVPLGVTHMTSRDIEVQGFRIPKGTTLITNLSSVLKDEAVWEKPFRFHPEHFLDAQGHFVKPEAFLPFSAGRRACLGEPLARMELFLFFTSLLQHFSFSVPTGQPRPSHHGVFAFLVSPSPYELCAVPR
For a further data set, the target named is CYP3A4 (Homo sapiens, UniProt P08684). Briefly: CYP3A4 inhibition, probe/drug metabolism in human liver microsomes. The conditions noted are these: midazolam 5 μM, 30 min; for activity at 30 min: human, human liver microsomes, pH 7.4, probe midazolam 5 μM, Residual activity (%) CYP3A4, HLM 0.5 mg/mL. On the procedure:
as §1, §2, §3, §4, §5, §6

Another data set concerns the target T2, CYP2A6 (Homo sapiens, UniProt P11509).
T2 sequence (P11509 1-494): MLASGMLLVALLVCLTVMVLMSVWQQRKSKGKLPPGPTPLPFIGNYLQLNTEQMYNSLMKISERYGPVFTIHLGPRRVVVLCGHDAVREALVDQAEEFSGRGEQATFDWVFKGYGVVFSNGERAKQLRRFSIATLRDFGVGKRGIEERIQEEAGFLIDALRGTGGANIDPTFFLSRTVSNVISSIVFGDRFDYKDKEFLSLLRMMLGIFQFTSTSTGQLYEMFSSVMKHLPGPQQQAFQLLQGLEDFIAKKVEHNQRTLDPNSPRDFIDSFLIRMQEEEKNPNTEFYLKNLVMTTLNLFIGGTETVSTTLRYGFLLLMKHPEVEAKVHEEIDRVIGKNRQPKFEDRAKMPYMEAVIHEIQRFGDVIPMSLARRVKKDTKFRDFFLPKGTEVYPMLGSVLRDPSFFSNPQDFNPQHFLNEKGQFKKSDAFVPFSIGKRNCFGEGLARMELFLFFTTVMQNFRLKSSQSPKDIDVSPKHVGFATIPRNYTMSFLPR
Briefly: CYP2A6 inhibition, coumarin probe in human liver microsomes. The settings on record: for activity at 30 min: human, human liver microsomes, pH 7.4, probe coumarin 2 μM, Residual activity (%) CYP2A6, HLM 0.5 mg/mL. On the procedure: as §1, §2, §5

The target in another data set is T3, CYP2B6 (Homo sapiens, UniProt P20813).
T3 sequence (P20813 1-491): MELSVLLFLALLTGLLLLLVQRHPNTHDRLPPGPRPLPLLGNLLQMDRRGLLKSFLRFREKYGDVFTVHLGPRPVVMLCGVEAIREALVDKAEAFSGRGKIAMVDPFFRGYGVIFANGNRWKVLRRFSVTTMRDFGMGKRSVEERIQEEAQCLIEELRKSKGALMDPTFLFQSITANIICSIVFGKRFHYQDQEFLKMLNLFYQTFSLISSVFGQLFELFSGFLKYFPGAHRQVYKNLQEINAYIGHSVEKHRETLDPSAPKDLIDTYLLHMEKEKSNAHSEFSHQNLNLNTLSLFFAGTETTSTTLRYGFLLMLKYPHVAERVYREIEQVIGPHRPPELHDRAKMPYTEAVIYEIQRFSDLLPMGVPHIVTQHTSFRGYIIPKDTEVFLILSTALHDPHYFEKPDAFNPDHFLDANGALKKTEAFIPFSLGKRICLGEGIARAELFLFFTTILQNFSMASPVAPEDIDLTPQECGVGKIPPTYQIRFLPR
Briefly: CYP2B6 inhibition, probe/drug metabolism in human liver microsomes. The conditions noted are these: bupropion 75 μM, 30 min; for activity at 30 min: human, human liver microsomes, pH 7.4, probe bupropion 75 μM, Residual activity (%) CYP2B6, HLM 0.5 mg/mL. On the procedure: as §1, §2, §3, §4, §5, §6

For the next data set, the target named is CYP2C9 (Homo sapiens, UniProt P11712). Briefly: CYP2C9 inhibition, probe/drug metabolism in human liver microsomes. The conditions noted are these: diclofenac 4 μM, 30 min; for activity at 30 min: human, human liver microsomes, pH 7.4, probe diclofenac 4 μM, Residual activity (%) CYP2C9, HLM 0.5 mg/mL. On the procedure:
as §1, §2, §3, §4, §5, §6

A further data set addresses CYP2C19 (Homo sapiens, UniProt P33261). Briefly: CYP2C19 inhibition, S-mephenytoin probe in human liver microsomes. The conditions noted are these: S-mephenytoin 50 μM, 30 min; for activity at 30 min: human, human liver microsomes, pH 7.4, probe S-mephenytoin 50 μM, Residual activity (%) CYP2C19, HLM 0.5 mg/mL. The method, then: as §1, §2, §5

CYP2C9, sequence (P11712 whole entry): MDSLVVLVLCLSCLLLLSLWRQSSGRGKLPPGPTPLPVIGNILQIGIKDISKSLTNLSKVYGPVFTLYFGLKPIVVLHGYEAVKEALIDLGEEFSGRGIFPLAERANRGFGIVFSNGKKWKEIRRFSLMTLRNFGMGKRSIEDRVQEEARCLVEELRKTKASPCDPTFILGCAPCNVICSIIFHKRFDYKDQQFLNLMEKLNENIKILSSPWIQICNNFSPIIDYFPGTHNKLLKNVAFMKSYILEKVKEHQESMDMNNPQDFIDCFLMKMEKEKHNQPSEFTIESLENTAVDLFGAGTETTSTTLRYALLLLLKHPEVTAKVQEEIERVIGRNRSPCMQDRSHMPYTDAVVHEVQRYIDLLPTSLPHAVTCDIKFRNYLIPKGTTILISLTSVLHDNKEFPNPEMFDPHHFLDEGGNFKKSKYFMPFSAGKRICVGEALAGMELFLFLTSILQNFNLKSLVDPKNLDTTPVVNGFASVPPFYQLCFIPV
CYP2C19, sequence (P33261 whole entry): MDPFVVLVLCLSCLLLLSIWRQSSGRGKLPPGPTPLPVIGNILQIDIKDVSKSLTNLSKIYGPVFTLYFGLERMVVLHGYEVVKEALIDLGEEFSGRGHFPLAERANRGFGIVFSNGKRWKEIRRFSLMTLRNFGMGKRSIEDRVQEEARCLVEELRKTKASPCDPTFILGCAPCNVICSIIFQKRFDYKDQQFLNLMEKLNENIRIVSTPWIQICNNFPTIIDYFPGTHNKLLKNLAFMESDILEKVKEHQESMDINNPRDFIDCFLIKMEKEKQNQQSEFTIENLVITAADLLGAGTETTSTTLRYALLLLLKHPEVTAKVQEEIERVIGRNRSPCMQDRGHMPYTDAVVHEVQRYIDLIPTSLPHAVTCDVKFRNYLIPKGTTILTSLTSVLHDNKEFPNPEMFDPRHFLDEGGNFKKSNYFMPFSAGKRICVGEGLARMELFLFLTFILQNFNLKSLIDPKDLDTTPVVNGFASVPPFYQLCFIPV
CYP3A4, sequence (P08684 whole entry): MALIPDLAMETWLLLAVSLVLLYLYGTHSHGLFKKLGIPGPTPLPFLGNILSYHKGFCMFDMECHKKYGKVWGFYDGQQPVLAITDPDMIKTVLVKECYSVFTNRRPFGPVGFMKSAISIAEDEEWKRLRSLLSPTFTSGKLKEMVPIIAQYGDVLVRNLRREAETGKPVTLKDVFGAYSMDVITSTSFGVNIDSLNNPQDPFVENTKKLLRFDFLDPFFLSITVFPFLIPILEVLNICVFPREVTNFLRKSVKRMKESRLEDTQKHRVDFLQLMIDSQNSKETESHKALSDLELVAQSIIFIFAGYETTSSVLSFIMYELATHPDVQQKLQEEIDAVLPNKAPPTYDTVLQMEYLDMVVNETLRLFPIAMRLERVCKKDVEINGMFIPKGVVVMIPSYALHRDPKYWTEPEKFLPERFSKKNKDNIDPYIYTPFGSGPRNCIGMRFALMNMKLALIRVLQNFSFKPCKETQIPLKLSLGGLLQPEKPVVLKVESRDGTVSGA

As for `CC(=O)OC1C(=O)C2=C(C(=O)CC3C(C)(C)C(=O)CCC23C)C2(C)C(=O)CC(C(C)CC(=O)CC(C)C(=O)O)C12C` (centres unmarked) [Compound 50], the “Residual activity (%) CYP1A2” value at CYP1A2 (HLM 0.5 mg/mL, phenacetin 40 μM, 30 min) turned out to be 62.18±2.53%. Also, the “Residual activity (%) CYP2D6” value at CYP2D6 (HLM 0.5 mg/mL, dextromethorphan 5 μM, 30 min) stood at 93.94±6.92%. Further, the “Residual activity (%) CYP3A4” value at CYP3A4 (HLM 0.5 mg/mL) amounted to 98.83±1.66%. The “Residual activity (%) CYP2A6” value at CYP2A6 (HLM 0.5 mg/mL, coumarin 2 μM, 30 min) was 89.71±3.49%. In addition, the “Residual activity (%) CYP2B6” value on CYP2B6 (HLM 0.5 mg/mL) amounted to 77.48±4.68%. The “Residual activity (%) CYP2C9” value on CYP2C9 (HLM 0.5 mg/mL) is 96.49±3.97%. Moreover, on CYP2C19 (HLM 0.5 mg/mL), the “Residual activity (%) CYP2C19” value is recorded as 116.59±7.39%.

`CC(=CC(=O)CC(C)C(=O)O)C1CC(=O)C2(C)C3=C(C(=O)CC12C)C1(C)CCC(=O)C(C)(C)C1CC3O` (centres unmarked) [Compound 51] gave an IC50 at CYP1A2 of 38.6 ± 9.4 µM. In addition, the activity at 30 min on CYP1A2 (phenacetin 40 μM, 30 min) stood at 58 ± 2.08%; on CYP2D6, 89.5 ± 3.3%; on CYP3A4, 94.1 ± 7.18%; on CYP2A6 it was 86 ± 4.07%; at CYP2B6, 77.8 ± 7.96%; on CYP2C9 it was 99.8 ± 6.62%. The activity at 30 min at CYP2C19 is 110 ± 3.54%.

Regarding `CC(=O)OC1C(=O)C2=C(C(=O)CC3C2(C)CCC(O)C3(C)C)C2(C)C(=O)CC(C3(C)CCC(=O)O3)C12C` (centres unmarked) [Compound 56], the midpoint of inhibition at CYP1A2, the IC50, lay at 34.2 ± 6.9 µM. Also, the activity at 30 min at CYP1A2 (phenacetin 40 μM, 30 min) came to 56 ± 0.69%; at CYP2D6 it was 86.9 ± 1.32%; at CYP3A4, 82.8 ± 1.1%; at CYP2A6 it was 72.3 ± 1.11%; on CYP2B6, 84.1 ± 0.94%; on CYP2C9 it was 92.5 ± 0.99%. Further, on CYP2C19, the activity at 30 min amounted to 109 ± 6.43%.
